One test addresses human P2Y6R (Homo sapiens, UniProt Q15077). Description: Calcium mobilization. The conditions noted are these: for fold reduction of P2Y6R potency relative to UDP 1 / P2Y6R activation (in words): calcium mobilization; for P2Y6R activation (in words): hP2Y6R. For orientation: A change in cytosolic calcium serves as a functional read-out for many receptors and channels.
The test system of test [1] is 46 receptors, channels and transporters. The test can be described thus: PDSP off-target panel. It counts as binding.
For a further test, the system named is rat CD73. The conditions noted are these: rat CD73, 5 μM AMP substrate, ref Junker et al. [33], cited from earlier work.
Another test deals with T1, hP2Y14R (Homo sapiens, UniProt Q15391).
T1 sequence (Q15391 1-338): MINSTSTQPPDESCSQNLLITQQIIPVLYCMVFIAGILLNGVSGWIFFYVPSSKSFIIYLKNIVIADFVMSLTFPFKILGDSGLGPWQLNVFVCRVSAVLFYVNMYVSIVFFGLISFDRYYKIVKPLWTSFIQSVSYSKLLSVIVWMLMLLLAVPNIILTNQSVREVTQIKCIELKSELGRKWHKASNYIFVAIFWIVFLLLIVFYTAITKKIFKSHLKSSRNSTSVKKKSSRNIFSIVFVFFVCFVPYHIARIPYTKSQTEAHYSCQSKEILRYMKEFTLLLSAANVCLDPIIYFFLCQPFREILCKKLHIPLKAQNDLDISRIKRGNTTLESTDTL
The test can be described thus: Fluorescent antagonist binding assay by flow cytometry of hP2Y14R-CHO cells.

The test system of another test is hP2YR. Particulars: cited from earlier work.
The next test relates to P2Y14R. Particulars: cited from earlier work.
Another test concerns hP2Y6R. Particulars: read-out: hP2Y6R EC50; cited from earlier work.

A word on the IC50: it is the midpoint of a concentration-inhibition curve. As usually defined, the EC50 is the concentration needed to bring the measured effect to its halfway point.

Molecules are shown by their SMILES. Entries after “also recorded” stand apart in the source; their conditions may differ. A value given as a limit tells only on which side of the number the result lay.

Chain of human P2Y6R (Q15077 whole entry): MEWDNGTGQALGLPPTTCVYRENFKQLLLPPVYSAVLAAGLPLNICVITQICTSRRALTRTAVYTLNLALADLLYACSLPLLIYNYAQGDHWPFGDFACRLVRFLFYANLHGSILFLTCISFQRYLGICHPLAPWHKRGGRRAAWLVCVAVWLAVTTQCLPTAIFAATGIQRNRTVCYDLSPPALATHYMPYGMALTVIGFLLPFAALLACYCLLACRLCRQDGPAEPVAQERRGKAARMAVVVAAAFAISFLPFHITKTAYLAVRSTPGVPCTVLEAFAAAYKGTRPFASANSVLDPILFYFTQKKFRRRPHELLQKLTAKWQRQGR

`CCN(CC)CC.CCN(CC)CC.CO/N=c1/ccn([C@@H]2O[C@H](COP(=O)(O)OP(=O)(O)O)[C@@H](O)[C@H]2O)c(=O)[nH]1` [Compound 11]: the “fold reduction of P2Y6R potency relative to UDP 1” value at human P2Y6R is 12 fold.

Regarding `CCN(CC)CC.CCN(CC)CC.O=c1[nH]/c(=N/OCc2ccccc2)ccn1[C@@H]1O[C@H](COP(=O)(O)OP(=O)(O)O)[C@@H](O)[C@H]1O` [Compound 13], the “fold reduction of P2Y6R potency relative to UDP 1” value on human P2Y6R is listed as 19 fold.

On to `O=c1ccn([C@@H]2O[C@H](COP(=O)(O)CP(=O)(O)O)[C@@H](O)[C@H]2O)c(=S)[nH]1` [Compound 14b, 2-thiouridine-5′-O-(α,β-methylene)diphosphate, reference compound], for which the “off-target activities (significant = >50% binding inhibition at 10 μM)” value in test [1] was “no significant”. Also, the “CD73 % inhibition at 1 μM” value in the test on rat CD73 (1 μM) was 7%.

Consider `CCN(CC)CC.CCN(CC)CC.O=c1[nH]c(=O)n([C@@H]2O[C@H](COP(=O)(O)CP(=O)(O)O)[C@@H](O)[C@H]2O)cc1F` [Compound 16, 5-Fluoro-5′-αβ-methylene-UDP], for which the “selectivity between P2Y6R and P2Y14R (in words)” value at hP2Y14R is given as “nonselective”. The IC50 in the test with rat CD73 (read-out: CD73 IC50) was over 1000 nM.

`O=c1[nH]/c(=N\OCc2ccc(S(F)(F)(F)(F)F)cc2)ccn1[C@@H]1O[C@H](COP(=O)(O)CP(=O)(O)O)[C@@H](O)[C@H]1O` [Compound 27]: the EC50 on human P2Y6R turned out to be 1690 nM.

For `CCN(CC)CC.CCN(CC)CC.O=C(/N=c1/ccn([C@@H]2O[C@H](COP(=O)(O)CP(=O)(O)O)[C@@H](O)[C@H]2O)c(=O)[nH]1)c1ccccc1` [Compound 30], the “selectivity between P2Y6R and P2Y14R (in words)” value on hP2Y14R is “nonselective”.

With `CCN(CC)CC.CCN(CC)CC.Cn1c(=O)n([C@@H]2O[C@H](COP(=O)(O)CP(=O)(O)O)[C@@H](O)[C@H]2O)cc/c1=N/OCc1ccccc1` [Compound 37], the “P2Y6R activation (in words)” value at human P2Y6R is recorded as “completely prevent P2Y6R activation; also recorded: prevented P2Y6R activation”.

As to `CCN(CC)CC.CCN(CC)CC.CCn1c(=O)n([C@@H]2O[C@H](COP(=O)(O)CP(=O)(O)O)[C@@H](O)[C@H]2O)cc/c1=N/OCc1ccccc1` [Compound 38], on human P2Y6R, the “P2Y6R activation (in words)” value is listed as “completely prevent P2Y6R activation; also recorded: prevented P2Y6R activation”.

`O=c1ccn([C@@H]2O[C@H](COP(=O)(O)CP(=O)(O)O)[C@@H](O)[C@@H]2O)c(=O)[nH]1` [Compound 39]: on human P2Y6R, the “P2Y6R activation (in words)” value is listed as “completely prevent P2Y6R activation; also recorded: prevented P2Y6R activation”.

Take `O=c1cnn([C@@H]2O[C@H](COP(=O)(O)CP(=O)(O)O)[C@@H](O)[C@H]2O)c(=O)[nH]1` [Compound 40]: on human P2Y6R, the “P2Y6R activation (in words)” value is recorded as “completely prevent P2Y6R activation; also recorded: prevented P2Y6R activation”.

Take `O=c1ccn([C@@H]2O[C@H](COP(=O)(O)O)[C@@H](O)[C@H]2O)c(=O)[nH]1` [UMP]: the “activation of hP2YRs (in words)” value in the test on hP2YR is listed as “does not activate any hP2YR”.

`O=c1ccn([C@@H]2O[C@H](COP(=O)(O)OP(=O)(O)OP(=O)(O)O)[C@@H](O)[C@H]2O)c(=O)[nH]1` [UTP]: in the test on P2Y14R, the “P2Y14R activity (in words)” value is “inactive”. For the same compound, the EC50 with hP2Y6R is over 10000 nM.
